Reference: patent US9249131B2, “Modulators of ATP-binding cassette transporters” (Vertex Pharmaceuticals Incorporated, priority 2003, dated 2016)

Molecular target: T1, ΔF508-CFTR (Homo sapiens, UniProt P13569, DEL508-508)
T1 construct: expressed in transfected cells; host or cells: NIH3T3 mouse fibroblasts stably expressing ΔF508-CFTR for the optical, whole-cell and single-channel assays; Fisher rat epithelial (FRT) cells for Ussing chamber follow-up
Assay: Assays for ΔF508-CFTR correction and potentiator properties (membrane potential optical and electrophysiological methods)
Format: cell-based
Conditions: CFTR modulation; for % Activity: % Efficacy; for EC50: tested using the above methods
Summary of the method: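 NIH3T3 mouse fibroblasts stably expressing ΔF508-CFTR were used, with membrane potential read by DiSBAC2(3)/CC2-DMPE FRET on VIPR. Correctors: 16 h compound exposure at 37 °C, then activation with forskolin plus genistein in Cl⁻-free medium. Potentiators: cells held 24 h at 27 °C, compound added in Cl⁻-free medium, 2-10 μM forskolin 22 s later (final Cl⁻ 28 mM).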

T1 sequence (P13569 with tags, fused parts or gaps DEL508-508): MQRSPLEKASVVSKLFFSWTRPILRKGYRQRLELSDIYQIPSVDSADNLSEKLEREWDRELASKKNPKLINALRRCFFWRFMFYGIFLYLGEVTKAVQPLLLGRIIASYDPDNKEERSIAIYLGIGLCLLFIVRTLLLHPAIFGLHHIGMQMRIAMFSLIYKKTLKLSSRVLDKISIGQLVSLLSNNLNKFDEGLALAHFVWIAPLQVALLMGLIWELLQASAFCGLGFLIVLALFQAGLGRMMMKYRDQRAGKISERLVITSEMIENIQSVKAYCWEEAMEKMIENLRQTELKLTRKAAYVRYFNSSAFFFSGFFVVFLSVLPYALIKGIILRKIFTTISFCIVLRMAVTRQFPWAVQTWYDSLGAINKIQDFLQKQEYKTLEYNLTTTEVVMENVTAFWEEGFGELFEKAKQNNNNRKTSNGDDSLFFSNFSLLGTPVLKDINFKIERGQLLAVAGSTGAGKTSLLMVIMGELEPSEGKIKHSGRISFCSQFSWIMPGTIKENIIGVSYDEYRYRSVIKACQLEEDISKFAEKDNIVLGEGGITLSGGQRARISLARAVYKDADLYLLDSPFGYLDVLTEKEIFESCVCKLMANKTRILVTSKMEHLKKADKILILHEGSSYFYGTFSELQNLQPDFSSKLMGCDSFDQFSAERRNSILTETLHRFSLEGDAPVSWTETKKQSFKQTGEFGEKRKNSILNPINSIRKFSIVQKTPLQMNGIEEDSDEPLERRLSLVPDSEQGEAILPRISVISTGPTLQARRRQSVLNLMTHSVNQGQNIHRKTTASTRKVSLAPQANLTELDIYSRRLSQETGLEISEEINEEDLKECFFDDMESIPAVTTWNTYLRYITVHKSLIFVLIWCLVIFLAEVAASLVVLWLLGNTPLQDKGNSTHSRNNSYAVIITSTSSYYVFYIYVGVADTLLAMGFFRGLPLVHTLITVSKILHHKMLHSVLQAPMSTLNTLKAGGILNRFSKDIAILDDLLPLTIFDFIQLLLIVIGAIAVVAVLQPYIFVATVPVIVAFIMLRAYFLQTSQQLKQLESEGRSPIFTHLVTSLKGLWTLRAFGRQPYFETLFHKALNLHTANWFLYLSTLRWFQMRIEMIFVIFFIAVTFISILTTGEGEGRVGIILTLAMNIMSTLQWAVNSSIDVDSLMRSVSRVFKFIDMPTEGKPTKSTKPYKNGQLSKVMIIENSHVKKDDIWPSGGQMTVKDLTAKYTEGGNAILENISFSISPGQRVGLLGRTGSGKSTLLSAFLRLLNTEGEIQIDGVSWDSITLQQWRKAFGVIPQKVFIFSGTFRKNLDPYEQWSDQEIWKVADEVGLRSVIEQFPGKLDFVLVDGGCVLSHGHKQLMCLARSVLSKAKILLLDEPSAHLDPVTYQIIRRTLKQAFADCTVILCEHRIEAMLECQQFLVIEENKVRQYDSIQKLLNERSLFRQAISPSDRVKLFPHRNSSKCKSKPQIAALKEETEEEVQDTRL

| SMILES | % Activity | EC50 [µM] |
| --- | --- | --- |
| O=C(Cc1ccccc1)Nc1ncc(Cc2cccc(Cl)c2)o1 [compound 157] | ++ (“++” means between 25% to 100%) | < 10 |
| O=C(Nc1ncc(Cc2cccc(Cl)c2)o1)c1ccccc1 [compound 158] | ++ (“++” means between 25% to 100%) | – |
| O=C(Nc1nc(-c2ccccc2Cl)cs1)c1ccccc1 [compound 159] | ++ (“++” means between 25% to 100%) | < 10 |
| O=C(Nc1nc(-c2cccc(Cl)c2)cs1)c1ccccc1 [compound 160] | +++ (“+++” means >100%) | 10 to 25 |
| N#Cc1ccc(-c2csc(NC(=O)c3ccccc3)n2)cc1 [compound 161] | ++ (“++” means between 25% to 100%) | 25 to 60 |
| COc1ccc(-c2csc(NC(=O)c3ccccc3)n2)c(OC)c1 [compound 162] | ++ (“++” means between 25% to 100%) | 25 to 60 |
| O=C(Nc1nc(-c2ccc(N3CCCC3)cc2)cs1)c1ccccc1 [compound 163] | ++ (“++” means between 25% to 100%) | 10 to 25 |
| O=C(Nc1nc(-c2ccc3c(c2)OCO3)cs1)c1ccccc1 [compound 164] | ++ (“++” means between 25% to 100%) | 10 to 25 |
| O=C(Nc1nc(-c2ccc(Cl)cc2)c(-c2ccccc2)s1)c1ccccc1 [compound 165] | +++ (“+++” means >100%) | < 10 |
| CC(C(=O)Nc1nc(-c2ccccc2)cs1)c1ccccc1 (stereo not drawn) [compound 166] | ++ (“++” means between 25% to 100%) | 10 to 25 |
| CCC(C(=O)Nc1nc(-c2ccccc2)cs1)c1ccccc1 (stereo not drawn) [compound 167] | ++ (“++” means between 25% to 100%) | < 10 |
| CC(C)C(C(=O)Nc1nc(-c2ccccc2)cs1)c1ccccc1 (stereo not drawn) [compound 168] | ++ (“++” means between 25% to 100%) | < 10 |
| O=C(Nc1nc(-c2ccccc2)cs1)C(c1ccccc1)C1CCCC1 (stereo not drawn) [compound 169] | ++ (“++” means between 25% to 100%) | < 10 |
| CCC(C)C(C(=O)Nc1nc(-c2ccccc2)cs1)c1ccccc1 (stereo not drawn) [compound 170] | ++ (“++” means between 25% to 100%) | < 10 |
| COC(=O)c1ccccc1C(=O)Nc1nc(-c2ccccc2)cs1 [compound 171] | ++ (“++” means between 25% to 100%) | < 10 |
| CC(C(=O)Nc1nc(-c2ccccc2)c(-c2ccccc2)s1)c1ccccc1 (stereo not drawn) [compound 172] | +++ (“+++” means >100%) | < 10 |

| SMILES | % Activity | EC50 [µM] |
| --- | --- | --- |
| CCC(C(=O)Nc1nc(-c2ccccc2)c(-c2ccccc2)s1)c1ccccc1 (stereo not drawn) [compound 173] | ++ (“++” means between 25% to 100%) | < 10 |
| CC(C)C(C(=O)Nc1nc(-c2ccccc2)c(-c2ccccc2)s1)c1ccccc1 (stereo not drawn) [compound 174] | ++ (“++” means between 25% to 100%) | < 10 |
| O=C(Nc1nc(-c2ccccc2)c(-c2ccccc2)s1)C(c1ccccc1)C1CCCC1 (stereo not drawn) [compound 175] | ++ (“++” means between 25% to 100%) | < 10 |
| CCC(C)C(C(=O)Nc1nc(-c2ccccc2)c(-c2ccccc2)s1)c1ccccc1 (stereo not drawn) [compound 176] | ++ (“++” means between 25% to 100%) | < 10 |
| O=C(Nc1nc(-c2ccccc2)c(-c2ccccc2)s1)C(c1ccccc1)C1CCCCC1 (stereo not drawn) [compound 177] | ++ (“++” means between 25% to 100%) | 10 to 25 |
| COC(=O)c1ccccc1C(=O)Nc1nc(-c2ccccc2)c(-c2ccccc2)s1 [compound 178] | +++ (“+++” means >100%) | < 10 |
| COc1ccccc1Cc1cnc(NC(=O)C(c2ccccc2)C2CCCCC2)o1 (stereo not drawn) [compound 179] | ++ (“++” means between 25% to 100%) | 10 to 25 |
| COc1ccccc1Cc1cnc(NC(=O)C(c2ccccc2)c2ccccc2)o1 [compound 180] | ++ (“++” means between 25% to 100%) | 10 to 25 |
| COc1ccccc1Cc1cnc(NC(=O)C2Cc3ccccc32)o1 (stereo not drawn) [compound 181] | ++ (“++” means between 25% to 100%) | 25 to 60 |
| COc1ccccc1Cc1cnc(NC(=O)C(C)c2ccccc2)o1 (stereo not drawn) [compound 182] | ++ (“++” means between 25% to 100%) | 25 to 60 |
| CCC(C(=O)Nc1ncc(Cc2ccccc2OC)o1)c1ccccc1 (stereo not drawn) [compound 183] | ++ (“++” means between 25% to 100%) | 25 to 60 |
| CCC(C)C(C(=O)Nc1ncc(Cc2ccccc2OC)o1)c1ccccc1 (stereo not drawn) [compound 184] | ++ (“++” means between 25% to 100%) | 10 to 25 |
| COc1ccccc1Cc1cnc(NC(=O)c2ccccc2)o1 [compound 185] | ++ (“++” means between 25% to 100%) | 10 to 25 |
| O=C(Nc1ncc(Cc2ccccc2Cl)o1)C(c1ccccc1)C1CCCCC1 (stereo not drawn) [compound 186] | ++ (“++” means between 25% to 100%) | 10 to 25 |
| O=C(Nc1ncc(Cc2ccccc2Cl)o1)C(c1ccc(Cl)cc1)c1ccc(Cl)cc1 [compound 187] | ++ (“++” means between 25% to 100%) | 10 to 25 |

More lines, now with the values ahead:

| % Activity | EC50 [µM] | SMILES |
| --- | --- | --- |
| ++ (“++” means between 25% to 100%) | 25 to 60 | O=C(Nc1ncc(Cc2ccccc2Cl)o1)C1Cc2ccccc21 (stereo not drawn) [compound 188] |
| ++ (“++” means between 25% to 100%) | 25 to 60 | CC(C(=O)Nc1ncc(Cc2ccccc2Cl)o1)c1ccccc1 (stereo not drawn) [compound 189] |
| ++ (“++” means between 25% to 100%) | 25 to 60 | CCC(C(=O)Nc1ncc(Cc2ccccc2Cl)o1)c1ccccc1 (stereo not drawn) [compound 190] |
| ++ (“++” means between 25% to 100%) | < 10 | CCC(C)C(C(=O)Nc1ncc(Cc2ccccc2Cl)o1)c1ccccc1 (stereo not drawn) [compound 191] |
| ++ (“++” means between 25% to 100%) | 10 to 25 | O=C(Nc1ncc(Cc2ccccc2Cl)o1)C(c1ccccc1)C1CCCC1 (stereo not drawn) [compound 192] |
| ++ (“++” means between 25% to 100%) | 10 to 25 | CC(C)C(C(=O)Nc1ncc(Cc2ccccc2Cl)o1)c1ccccc1 (stereo not drawn) [compound 193] |
| ++ (“++” means between 25% to 100%) | 25 to 60 | O=C(Cc1ccccc1)Nc1ncc(Cc2ccccc2Cl)o1 [compound 194] |
| ++ (“++” means between 25% to 100%) | < 10 | O=C(Nc1ncc(Cc2ccccc2Cl)o1)c1ccccc1 [compound 195] |
| ++ (“++” means between 25% to 100%) | < 10 | COc1ccc(S(=O)(=O)N2CCN(C(C)C(=O)Nc3nc(-c4ccccc4)c(-c4ccccc4)s3)CC2)cc1 (stereo not drawn) [compound 196] |
| ++ (“++” means between 25% to 100%) | < 10 | CC(C(=O)Nc1nc(-c2ccccc2)c(-c2ccccc2)s1)N1CCN(S(=O)(=O)c2ccc(Cl)cc2)CC1 (stereo not drawn) [compound 197] |
| ++ (“++” means between 25% to 100%) | < 10 | Cc1ccc(S(=O)(=O)N2CCN(C(C)C(=O)Nc3nc(-c4ccccc4)c(-c4ccccc4)s3)CC2)cc1 (stereo not drawn) [compound 198] |
| +++ (“+++” means >100%) | < 10 | CC(C(=O)Nc1nc(-c2ccccc2)cs1)N1CCN(S(=O)(=O)c2ccc(Br)cc2)CC1 (stereo not drawn) [compound 199] |
| +++ (“+++” means >100%) | < 10 | CC[C@@H](C(=O)Nc1ncc(Cc2ccccc2Cl)s1)c1ccccc1 [compound 201] |
| ++ (“++” means between 25% to 100%) | < 10 | CC[C@H](C(=O)Nc1ncc(Cc2ccccc2Cl)s1)c1ccccc1 [compound 202] |
| ++ (“++” means between 25% to 100%) | < 10 | CC[C@@H](C(=O)Nc1ncc(Cc2cccc(Cl)c2)s1)c1ccccc1 [compound 203] |
| ++ (“++” means between 25% to 100%) | < 10 | CC[C@H](C(=O)Nc1ncc(Cc2cccc(Cl)c2)s1)c1ccccc1 [compound 204] |
| ++ (“++” means between 25% to 100%) | < 10 | CC[C@H](C(=O)Nc1ncc(Cc2ccc(Cl)cc2)s1)c1ccccc1 [compound 205] |
| ++ (“++” means between 25% to 100%) | < 10 | CC(C)CC(=O)Nc1ncc(Cc2ccccc2Cl)s1 [compound 206] |
| ++ (“++” means between 25% to 100%) | < 10 | O=C(Nc1ncc(Cc2ccccc2Cl)s1)C1CC1 [compound 207] |
